Reference: patent US8415342B2, “Besifloxacin ophthalmic composition for the treatment or control of infection” (Bausch & Lomb Incorporated, priority 2008, dated 2013)
Converted amounts (≈) assume the structure as drawn. “And” between values parts separate entries of the source, which are not always exact repeats. Equal entries are not always repeated.

Key:
[1] = tested on: S. aureus topoisomerase mutants; test: MIC against defined topoisomerase mutants; type: cell-based; details: Staphylococcus aureus
[2] = target: E. coli topoisomerase IV (Escherichia coli, UniProt P0AFI2+P20083); test: Catalytic inhibition of purified topoisomerase IV; type: biochemical; details: IC50 Topo IV, E. coli enzymes
[3] = target: T1, S. pneumoniae topoisomerase IV (Streptococcus pneumoniae serotype 4, UniProt P72525+Q59961); test: biochemical; type: biochemical
T1 sequence (P72525 1-823): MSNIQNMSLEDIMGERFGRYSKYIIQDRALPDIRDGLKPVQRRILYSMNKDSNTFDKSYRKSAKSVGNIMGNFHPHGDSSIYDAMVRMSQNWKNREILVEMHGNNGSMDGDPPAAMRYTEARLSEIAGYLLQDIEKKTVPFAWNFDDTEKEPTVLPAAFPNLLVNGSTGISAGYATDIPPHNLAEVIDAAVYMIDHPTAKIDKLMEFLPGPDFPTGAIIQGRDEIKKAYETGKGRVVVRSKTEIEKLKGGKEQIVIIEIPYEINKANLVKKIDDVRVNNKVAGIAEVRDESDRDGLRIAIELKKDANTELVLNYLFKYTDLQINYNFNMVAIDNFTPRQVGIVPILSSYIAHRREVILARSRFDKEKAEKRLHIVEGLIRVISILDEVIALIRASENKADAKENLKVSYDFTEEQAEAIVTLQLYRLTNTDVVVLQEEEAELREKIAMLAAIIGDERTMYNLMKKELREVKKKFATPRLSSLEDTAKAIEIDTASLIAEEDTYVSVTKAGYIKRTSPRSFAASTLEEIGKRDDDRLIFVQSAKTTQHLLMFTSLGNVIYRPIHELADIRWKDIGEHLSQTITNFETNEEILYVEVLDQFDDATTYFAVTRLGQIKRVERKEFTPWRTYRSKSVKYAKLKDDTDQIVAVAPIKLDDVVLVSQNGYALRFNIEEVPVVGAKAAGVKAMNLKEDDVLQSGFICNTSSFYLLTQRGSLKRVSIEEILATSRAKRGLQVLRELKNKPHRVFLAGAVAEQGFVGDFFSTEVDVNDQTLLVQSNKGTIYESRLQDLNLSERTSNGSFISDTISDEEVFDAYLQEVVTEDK
T1 sequence (Q59961 1-647): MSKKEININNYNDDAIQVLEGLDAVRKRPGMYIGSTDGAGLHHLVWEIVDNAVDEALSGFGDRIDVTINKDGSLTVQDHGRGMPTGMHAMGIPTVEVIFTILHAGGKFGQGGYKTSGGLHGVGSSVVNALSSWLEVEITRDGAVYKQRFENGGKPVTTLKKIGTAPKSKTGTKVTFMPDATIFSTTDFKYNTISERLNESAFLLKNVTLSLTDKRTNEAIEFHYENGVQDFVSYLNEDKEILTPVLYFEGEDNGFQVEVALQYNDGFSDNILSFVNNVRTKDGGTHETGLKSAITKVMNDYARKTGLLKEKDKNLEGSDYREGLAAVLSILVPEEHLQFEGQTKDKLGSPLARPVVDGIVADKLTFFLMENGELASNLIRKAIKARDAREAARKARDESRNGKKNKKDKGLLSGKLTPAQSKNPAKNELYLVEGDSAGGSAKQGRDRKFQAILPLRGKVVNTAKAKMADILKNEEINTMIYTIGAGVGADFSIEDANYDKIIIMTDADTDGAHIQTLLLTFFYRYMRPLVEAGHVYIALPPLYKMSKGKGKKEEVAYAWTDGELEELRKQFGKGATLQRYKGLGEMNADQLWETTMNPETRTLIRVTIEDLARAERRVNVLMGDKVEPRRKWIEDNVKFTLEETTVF

[4] = tested on: baseline bacterial conjunctival pathogens; test: Integrated species-specific microbial eradication, Studies 373, 433, 434; type: in vivo, human; details: for Microbial eradication rate / Microbial eradication rate (eradicated/total): culture-confirmed, as-treated population (Global); for microbial eradication rate, all species combined: Studies 373, 433, 434 integrated, global (US and Asia)
[5] = tested on: S. aureus, S. pneumoniae, and H. influenzae; test: Time-kill studies; type: cell-based; details: S. pneumoniae, and H. influenzae (data not shown)
From the text: The success of in vivo antimicrobial action depends to a large extent on the host's defense mechanisms, which ultimately sequester and kill the microorganisms that have been reduced by the bacteriostatic/bactericidal action of the antibacterial agent. Thus, it is also of interest to profile the bactericidal activity of antimicrobial agents. The assessment of in vitro bactericidal activity can be accomplished in multiple ways, for example, the time-kill method or the determination of the minimum bactericidal concentration (MBC). […] Bactericidal agents are characterized by low MBC:MIC ratios.

[6] = C. pseudodiphtheriticum, Visit 2
[7] = C. pseudodiphtheriticum, Visit 3
[8] = CDC coryneform group G, Visit 2
[9] = CDC coryneform group G, Visit 3
[10] = S. mitis group (only isolates identified as S. mitis or S. mitis group), Visit 2
[11] = S. mitis group (only isolates identified as S. mitis or S. mitis group), Visit 3

Sequence of E. coli topoisomerase IV (P0AFI2 whole entry): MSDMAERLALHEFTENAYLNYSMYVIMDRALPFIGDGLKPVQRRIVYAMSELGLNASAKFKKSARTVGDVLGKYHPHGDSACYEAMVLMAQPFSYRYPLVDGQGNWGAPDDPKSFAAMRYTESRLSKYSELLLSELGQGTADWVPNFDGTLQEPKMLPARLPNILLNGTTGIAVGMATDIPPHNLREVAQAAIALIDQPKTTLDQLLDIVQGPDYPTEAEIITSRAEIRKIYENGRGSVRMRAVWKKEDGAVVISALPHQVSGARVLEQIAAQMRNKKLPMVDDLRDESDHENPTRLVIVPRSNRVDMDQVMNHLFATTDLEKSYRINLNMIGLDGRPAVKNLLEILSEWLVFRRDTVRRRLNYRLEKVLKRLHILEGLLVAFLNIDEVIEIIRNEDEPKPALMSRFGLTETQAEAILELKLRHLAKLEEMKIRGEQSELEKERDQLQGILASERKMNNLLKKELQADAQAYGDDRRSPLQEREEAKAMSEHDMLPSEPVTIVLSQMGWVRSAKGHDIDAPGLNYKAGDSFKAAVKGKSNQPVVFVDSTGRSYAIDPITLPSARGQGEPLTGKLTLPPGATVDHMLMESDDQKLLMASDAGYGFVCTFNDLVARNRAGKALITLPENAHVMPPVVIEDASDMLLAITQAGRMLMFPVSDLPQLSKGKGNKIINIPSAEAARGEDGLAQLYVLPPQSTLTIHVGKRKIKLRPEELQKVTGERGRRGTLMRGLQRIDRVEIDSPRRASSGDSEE
Sequence of E. coli topoisomerase IV (P20083 whole entry): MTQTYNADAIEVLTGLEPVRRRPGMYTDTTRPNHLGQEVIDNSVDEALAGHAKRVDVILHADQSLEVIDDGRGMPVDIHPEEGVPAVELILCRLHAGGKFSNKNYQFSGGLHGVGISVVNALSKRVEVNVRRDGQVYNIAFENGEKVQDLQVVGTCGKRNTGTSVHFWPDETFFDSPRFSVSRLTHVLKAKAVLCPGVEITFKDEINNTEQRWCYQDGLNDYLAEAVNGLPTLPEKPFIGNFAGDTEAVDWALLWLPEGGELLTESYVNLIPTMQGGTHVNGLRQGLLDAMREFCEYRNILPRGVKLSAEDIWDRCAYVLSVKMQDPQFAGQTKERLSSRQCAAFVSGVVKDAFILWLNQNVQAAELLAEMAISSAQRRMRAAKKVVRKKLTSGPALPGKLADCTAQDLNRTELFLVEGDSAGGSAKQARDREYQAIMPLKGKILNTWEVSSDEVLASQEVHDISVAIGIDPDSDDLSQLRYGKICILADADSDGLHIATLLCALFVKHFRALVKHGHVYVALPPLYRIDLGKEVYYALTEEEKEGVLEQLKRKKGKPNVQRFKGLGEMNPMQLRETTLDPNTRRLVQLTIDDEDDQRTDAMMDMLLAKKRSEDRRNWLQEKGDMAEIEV

N[C@@H]1CCCCN(c2c(F)cc3c(=O)c(C(=O)O)cn(C4CC4)c3c2Cl)C1 [Besifloxacin, (R)-(+)-(3-amino-2,3,4,5,6,7-hexahydro-1H-azepin-1-yl)-8-chloro-1-cyclopropyl-6-fluoro-1,4,-dihydro-4-oxo-3-quinolinecarboxylic acid]
MIC ([1]; S. aureus Wild type): 0.03 µg/mL (≈ 0.0762 µM)
MIC ([1]; S. aureus parC S80F (or E84K)): 0.06 µg/mL (≈ 0.152 µM)
MIC ([1]; S. aureus parC S80F + gyrA S84L): 0.5 µg/mL
IC50 [2]: 23 µM and 25.4 µM
IC50 ([3]; IC50 Topo IV, S. pneumoniae enzymes): 1 µM and 1.02 µM
potency relative to ciprofloxacin and moxifloxacin (catalytic inhibition and cleavable complex stimulation) ([3]; S. pneumoniae topoisomerase IV): 2.5- to 5.0 fold
Microbial eradication rate ([4]; All species, Visit 2): (92.2%)
Microbial eradication rate (eradicated/total) ([4]; All species, Visit 2): 606/656
Microbial eradication rate ([4]; All species, Visit 3): (88.4%)
Microbial eradication rate (eradicated/total) ([4]; All species, Visit 3): 580/656
Microbial eradication rate [4, 6]: (100.0%)
Microbial eradication rate (eradicated/total) [4, 6]: 6/6
Microbial eradication rate [4, 7]: (100.0%)
Microbial eradication rate (eradicated/total) [4, 7]: 6/6
Microbial eradication rate ([4]; C. striatum, Visit 2): (100.0%)
Microbial eradication rate (eradicated/total) ([4]; C. striatum, Visit 2): 5/5
Microbial eradication rate ([4]; C. striatum, Visit 3): (100.0%)
Microbial eradication rate (eradicated/total) ([4]; C. striatum, Visit 3): 5/5
Microbial eradication rate [4, 8]: (93.8%)
Microbial eradication rate (eradicated/total) [4, 8]: 15/16
Microbial eradication rate [4, 9]: (93.8%)
Microbial eradication rate (eradicated/total) [4, 9]: 15/16
Microbial eradication rate ([4]; Gram-negative, Visit 2): (92.3%)
Microbial eradication rate (eradicated/total) ([4]; Gram-negative, Visit 2): 193/209
Microbial eradication rate ([4]; Gram-negative, Visit 3): (90.0%)
Microbial eradication rate (eradicated/total) ([4]; Gram-negative, Visit 3): 188/209
Microbial eradication rate ([4]; Gram-positive, Visit 2): (92.2%)
Microbial eradication rate (eradicated/total) ([4]; Gram-positive, Visit 2): 412/447
Microbial eradication rate ([4]; Gram-positive, Visit 3): (87.7%)
Microbial eradication rate (eradicated/total) ([4]; Gram-positive, Visit 3): 392/447
Microbial eradication rate ([4]; H. influenzae, Visit 2): (91.0%)
Microbial eradication rate (eradicated/total) ([4]; H. influenzae, Visit 2): 152/167
Microbial eradication rate ([4]; H. influenzae, Visit 3): (88.6%)
Microbial eradication rate (eradicated/total) ([4]; H. influenzae, Visit 3): 148/167
Microbial eradication rate ([4]; M. lacunata, Visit 2): (100.0%)
Microbial eradication rate (eradicated/total) ([4]; M. lacunata, Visit 2): 5/5
Microbial eradication rate ([4]; M. lacunata, Visit 3): (80.0%)
Microbial eradication rate (eradicated/total) ([4]; M. lacunata, Visit 3): 4/5
Microbial eradication rate ([4]; S. aureus, Visit 2): (87.1%)
Microbial eradication rate (eradicated/total) ([4]; S. aureus, Visit 2): 81/93
Microbial eradication rate ([4]; S. aureus, Visit 3): (83.9%)
Microbial eradication rate (eradicated/total) ([4]; S. aureus, Visit 3): 78/93
Microbial eradication rate ([4]; S. epidermidis, Visit 2): (94.0%)
Microbial eradication rate (eradicated/total) ([4]; S. epidermidis, Visit 2): 47/50
Microbial eradication rate ([4]; S. epidermidis, Visit 3): (88.0%)
Microbial eradication rate (eradicated/total) ([4]; S. epidermidis, Visit 3): 44/50
Microbial eradication rate ([4]; S. hominis, Visit 2): (83.3%)
Microbial eradication rate (eradicated/total) ([4]; S. hominis, Visit 2): 5/6
Microbial eradication rate ([4]; S. hominis, Visit 3): (100.0%)
Microbial eradication rate (eradicated/total) ([4]; S. hominis, Visit 3): 6/6
Microbial eradication rate ([4]; S. lugdunensis, Visit 2): (100.0%)
Microbial eradication rate (eradicated/total) ([4]; S. lugdunensis, Visit 2): 5/5
Microbial eradication rate ([4]; S. lugdunensis, Visit 3): (100.0%)
Microbial eradication rate (eradicated/total) ([4]; S. lugdunensis, Visit 3): 5/5
Microbial eradication rate [4, 10]: (89.5%)
Microbial eradication rate (eradicated/total) [4, 10]: 17/19
Microbial eradication rate [4, 11]: (84.2%)
Microbial eradication rate (eradicated/total) [4, 11]: 16/19
Microbial eradication rate ([4]; S. oralis, Visit 2): (90.9%)
Microbial eradication rate (eradicated/total) ([4]; S. oralis, Visit 2): 10/11
Microbial eradication rate ([4]; S. oralis, Visit 3): (72.7%)
Microbial eradication rate (eradicated/total) ([4]; S. oralis, Visit 3): 8/11
Microbial eradication rate ([4]; S. pneumoniae, Visit 2): (92.8%)
Microbial eradication rate (eradicated/total) ([4]; S. pneumoniae, Visit 2): 142/153
Microbial eradication rate ([4]; S. pneumoniae, Visit 3): (86.3%)
Microbial eradication rate (eradicated/total) ([4]; S. pneumoniae, Visit 3): 132/153
Microbial eradication rate ([4]; S. salivarius, Visit 2): (100.0%)
Microbial eradication rate (eradicated/total) ([4]; S. salivarius, Visit 2): 5/5
Microbial eradication rate ([4]; S. salivarius, Visit 3): (80.0%)
Microbial eradication rate (eradicated/total) ([4]; S. salivarius, Visit 3): 4/5
microbial eradication rate, all species combined ([4]; Visit 2): 92.2%
microbial eradication rate, all species combined ([4]; Visit 3): 88.4%
bactericidal activity in time-kill studies [5]: confirmed the bactericidal activity
